tested on: DSPP gene; assay: mRNA level of DSPP gene in MDPC-23 cells by RT-PCR and real-time PCR; assay type: cell-based, mouse; conditions: cultured 48 hours with peptide, relative ratio to mRNA level in untreated control, Gapdh internal control, repeated three times
Description: The MDPC-23 cells cultured in Example 2-1 were treated with the peptides of each group synthesized in Example 1, then cultured for 48 hours. The mRNA level of the DSPP, an odontoblast differentiation marker gene, expressed in the MDPC-23 cells were measured, and the measured mRNA level of each DSPP gene was converted into a relative ratio to the mRNA level of the DSPP gene measured in control (Tables 13 to 24). In addition, the average value of the mRNA level of the DSPP gene measured according to the peptides of each group was compared (FIG. 1B). At this time, as a control, MDPC-23 cells that were not treated with the peptide promoting differentiation of odontoblast were used.
The expression level of the DSPP gene was measured through RT-PCR and real-time PCR analysis: Specifically, total RNA was extracted from the MDPC-23 cells using TRIzol reagent. 2 μg of the total RNA, 1 μl of reverse transcriptase, and 0.5 μg of oligo (oligo; dT) were used to synthesize cDNA. The synthesized cDNA was used in a real-time polymerase chain reaction. The real-time polymerase chain reaction was performed on an ABI PRISM 7500 sequence detection system (Applied Biosystems) and an SYBR GREEN PCR Master Mix (Takara, Japan). The real-time polymerase chain reaction was performed under conditions of 94° C., 1 min; 95° C., 15 sec; 60° C., 34 sec for 40 cycles. Results were analyzed by a comparative cycle threshold (CT) method. At this time, the Gapdh gene was used as the internal control group, and the measured value was repeated three times. The mean value and standard deviation value thereof were used.

Row | Substance | mRNA level of Dspp gene Mean
1 | 89 (KYKQRKKSYK; Novel peptide) [compound 89] | 4.211
2 | 90 (KYKQRKRSYK; Novel peptide) [compound 90] | 4.811
3 | 91 (KYKQRRKSYK; Novel peptide) [compound 91] | 4.362
4 | 92 (KYKQRRRSYK; Novel peptide) [compound 92] | 4.211
5 | 93 (KYKQKKKSYK; Novel peptide) [compound 93] | 4.525
6 | 94 (KYKQKRKSYK; Novel peptide) [compound 94] | 3.836
7 | 95 (KYKQKKRSYK; Novel peptide) [compound 95] | 4.62
8 | 96 (KYKQKRRSYK; Novel peptide) [compound 96] | 5.211
